The structures appear in SMILES notation.

Usually IC50 stands for the concentration that inhibits the measured activity by half.

The subject of this assay is NLRP3 inflammasome. The experiment in a line: IL-1β Secretion Assay (NLRP3-dependent IL-1β secretion in PMA-differentiated THP-1 cells, nigericin activation, HTRF). The format is cell-based. The following applies: Homo sapiens, THP-1, THP-1 cells, 100 ng/mL PMA 24 h, compound 20 h, 2.5 μM Nigericin 3 h; read-out: IC50 IL-1β Inhibition. Put shortly:
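IL-1β release, quantified by HTRF after nigericin activation of the NLRP3 inflammasome, was the read-out. A logistic fit of percent inhibition gave IC50.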
For orientation: TR-FRET usually uses a lanthanide donor and a delayed reading to cut background.
In the case of `C[C@@H](O)CNc1nnc(-c2ccc(C(F)(F)F)cc2OC(F)F)c2c(F)ccn12` [Compound I-440], the IC50 lay within 10 to 100 nM.

Consider `CN1CC=C(c2ccc(-c3nnc(N[C@@H]4CCCN(C)C4)c4ccccc34)c(O)c2)C1` [Compound I-58], for which the 50% inhibitory concentration (IC50) fell in the range of 1 to 10 nM. To `CN1CCOCC(Nc2nnc(-c3ccc(C(F)(F)F)cc3O)c3cnccc23)C1` (centres unmarked) [Compound I-260] belongs 10 to 100 nM. The value for `CN1CCC[C@@H](Nc2nnc(-c3ccc(-c4ncccn4)cc3O)c3ccncc23)C1` [Compound I-200] was 1 to 10 nM; that for `CN1CCC[C@@H](Nc2nnc(-c3ccc(C(F)(F)F)cc3O)c3c(F)ccn23)C1` [Compound I-393] was less than 1 nM; that for `C[C@]1(O)C[C@@H](Nc2nnc(-c3ccc(OC(F)(F)F)cc3O)c3cccn23)C1` [Compound I-523] was 10 to 100 nM. The value for `CN1CCC[C@@H](Nc2nnc(-c3ccc(OC4CC4)cc3O)c3ccncc23)C1` [Compound I-237, (R)-5-Cyclopropoxy-2-(4-((1-methylpiperidin-3-yl)amino)pyrido[3,4-d]pyridazin-1-yl)phenol] was 1 to 10 nM.

Take `CN1CCC[C@@H](Nc2nnc(-c3ccc(C4CC4)cc3OC(F)F)c3ccncc23)C1` [Compound I-247]: the half-inhibitory concentration (IC50) fell in the range of 1 to 10 nM. To `Cc1cncc(-c2nnc(N[C@@H]3CCCN(C)C3)c3ccccc23)c1O` [Compound I-159] belongs 100 to 300 nM; to `CN1CCC[C@@H](Nc2nnc(-c3ccc(C(F)(F)F)cc3C#N)c3ccccc23)C1` [Compound I-131], 1 to 10 nM; to `CCN1CCC[C@@H](Nc2nnc(-c3ccc(C(F)(F)F)cc3O)c3cncn23)C1` [Compound I-360], less than 1 nM. The value for `CN1CCC[C@@H](Nc2nnc(-c3ncc(Cl)cc3O)c3ccncc23)C1` [Compound I-172] was 1 to 10 nM; that for `CN1CCC[C@@H](Nc2nnc(-c3ccc(C(F)(F)F)cc3O)c3c2CCCCC3)C1` [Compound I-36, (R)-2-(4-((1-Methylpiperidin-3-yl)amino)-6,7,8,9-tetrahydro-5H-cyclohepta[d]pyridazin-1-yl)-5-(trifluoromethyl)phenol] was less than 1 nM; that for `CN1CCC[C@@H](Oc2nnc(-c3ccc(C(F)(F)F)cc3O)c3ccccc23)C1` [Compound I-29] was 1 to 10 nM.

In the case of `CCc1ccc(-c2nnc(N[C@@H]3CCCN(C)C3)c3cnccc23)c(O)c1` [Compound I-307], the concentration for half-maximal inhibition (IC50) was less than 1 nM. The value for `CCN1CCC[C@@H](Nc2nnc(-c3ccc(OC)cc3C(F)(F)F)c3cccn23)C1` [Compound I-392] was 1 to 10 nM; that for `CN1CCC[C@@H](Nc2nnc(-c3ccc(C(F)(F)F)cc3OC(F)F)c3cnccc23)C1` [Compound I-122] was 1 to 10 nM; that for `Cc1cc(F)c(-c2nnc(N[C@@H]3CCCOC3)n3cccc23)c(OC(F)F)c1` [Compound I-464] was 100 to 300 nM.

Take `CCN1CCC[C@@H](Nc2nnc(-c3c(O)cc(C4CC4)cc3F)c3c(F)ccn23)C1` [Compound I-602]: the IC50 was less than 1 nM. To `CN1CC[C@@H](F)[C@@H](Nc2nnc(-c3ccc(C(F)(F)F)cc3O)c3cccn23)C1` [Compound I-486, 2-(4-(((3S,4R)-4-Fluoro-1-methylpiperidin-3-yl)amino)pyrrolo[1,2-d][1,2,4]triazin-1-yl)-5-(trifluoromethyl)phenol] belongs 10 to 100 nM. The value for `CN1C[C@H](F)C[C@@H](Nc2nnc(-c3ccc(C(F)(F)F)cc3OC(F)F)c3cncn23)C1` [Compound I-625] was 10 to 100 nM; that for `CN1CCC[C@@H](Nc2nnc(-c3ccc(C4=CCCOC4)cc3O)c3ccccc23)C1` [Compound I-52] was 1 to 10 nM; that for `CN1CCC[C@H](Nc2nnc(-c3ccc(Cl)cc3O)c3c2N(C)CCC3)C1` [Compound I-155] was 1 to 10 nM.

In the case of `CN1CCCC(Cc2nnc(-c3ccc(C(F)(F)F)cc3O)c3cnccc23)C1` (centres unmarked) [Compound I-118, 2-(1-((1-Methylpiperidin-3-yl)methyl)pyrido[3,4-d]pyridazin-4-yl)-5-(trifluoromethyl)phenol], the 50% inhibitory concentration (IC50) lay within 1 to 10 nM. Regarding `CN1CCC[C@@H](Nc2nnc(-c3ccc(-c4ccccc4)cc3O)c3ccccc23)C1` [Compound I-39], the IC50 lay in the range of 1 to 10 nM. On to `O[C@H]1CCC[C@@H](Nc2nnc(-c3ccc(C(F)(F)F)cc3OC(F)F)c3c(F)ccn23)C1` [Compound I-524], for which the IC50 fell in the range of 10 to 100 nM. To `COc1ccc(-c2nnc(N[C@@H]3CCCN(C)C3)n3nc(C4CC4)cc23)c(O)c1` [Compound I-347] belongs 10 to 100 nM.

Take `Cc1cc(O)c(-c2nnc(N[C@@H]3CCCN(CCO)C3)n3cccc23)c(F)c1` [Compound I-341]: the half-maximal inhibitory concentration (IC50) lay within 1 to 10 nM. The value for `CN1CCC[C@@H](Nc2nnc(-c3c(O)cc(Cl)cc3F)c3ccncc23)C1` [Compound I-170] was less than 1 nM; that for `CN1C[C@H](F)C[C@@H](Nc2nnc(-c3ccc(OC(F)(F)F)cc3O)c3cccn23)C1` [Compound I-409] was 1 to 10 nM. Consider `Oc1cc(Cl)ccc1-c1nnc(N[C@@H]2CCCNC2)n2cncc12` [Compound I-435], for which the half-inhibitory concentration (IC50) was 1 to 10 nM.

As to `CN1CCC[C@@H](Nc2nnc(-c3ccc(Cl)cc3C(F)F)c3cccn23)C1` [Compound I-443, 1-[4-Chloro-2-(difluoromethyl)phenyl]-N-[(3R)-1-methyl-3-piperidyl]pyrrolo[1,2-d][1,2,4]triazin-4-amine], the IC50 was 1 to 10 nM. To `Oc1cc(Cl)ccc1-c1nnc(N[C@@H]2CCC[C@H](O)C2)n2cncc12` [Compound I-578] belongs less than 1 nM. To `Cc1cc(Cl)cc(F)c1-c1nnc(N[C@@H]2CCCN(C)C2)c2cnccc12` [Compound I-198] belongs 10 to 100 nM; to `OCCN1CCC[C@@H](Nc2nnc(-c3ccc(OC(F)(F)F)cc3O)c3cccn23)C1` [Compound I-373], 1 to 10 nM; to `C[C@@H](O)CNc1nnc(-c2ccc(C3CC3)cc2O)c2cccn12` [Compound I-586], 100 to 300 nM. To `CN1CCC[C@@H](Nc2nnc(-c3ccc(C(F)(F)F)cc3O)c3ccoc23)C1` [Compound I-313, (R)-2-(7-((1-Methylpiperidin-3-yl)amino)furo[2,3-d]pyridazin-4-yl)-5-(trifluoromethyl)phenol] belongs less than 1 nM. For the molecule `CC(C)(O)CNc1nnc(-c2ccc(C(F)(F)F)cc2OC(F)F)c2cccn12` [Compound I-536], the half-inhibitory concentration (IC50) fell in the range of 10 to 100 nM. To `CC(C)(O)CNc1nnc(-c2ccc(OC(F)(F)F)cc2O)c2cccn12` [Compound I-438] belongs 100 to 300 nM; to `CCN1CCC[C@@H](Nc2nnc(-c3c(O)cc(C)cc3F)c3cccn23)C1` [Compound I-498], less than 1 nM; to `COc1cc(C(F)(F)F)ccc1-c1nnc(N[C@H]2CN3CCC2CC3)c2cnccc12` [Compound I-199], 10 to 100 nM.

Regarding `Oc1cc(C(F)(F)F)ccc1-c1nnc(NC2CCNC2)c2ccccc12` (centres unmarked) [Compound I-6], the half-inhibitory concentration (IC50) lay within 10 to 100 nM. The value for `CN1CCC[C@@H](Nc2nnc(-c3ccc(-n4ccnn4)cc3O)c3ccccc23)C1` [Compound I-37] was 10 to 100 nM; that for `OCCN1CCCC[C@@H](Nc2nnc(-c3ccc(C(F)(F)F)cc3O)c3ccncc23)C1` [Compound I-317] was 1 to 10 nM.

Consider `Oc1cc(C(F)(F)F)ccc1-c1nnc(NC2CCCCC2)c2cnccc12` [Compound I-288], for which the 50% inhibitory concentration (IC50) was in the range of 1 to 10 nM. The value for `CC(C)N1CCC[C@@H](Nc2nnc(-c3ccc(C(F)(F)F)cc3O)c3c2CCCC3)C1` [Compound I-34] was less than 1 nM; that for `CN1CCC[C@@H](Nc2nnc(-c3c(O)cc(C(F)(F)F)cc3F)c3cccn23)C1` [Compound I-372] was less than 1 nM; that for `CN1CCC[C@@H](Nc2nnc(-c3ccc(Cl)cc3OC(F)F)c3cccn23)C1` [Compound I-356, 1-[4-Chloro-2-(difluoromethoxy)phenyl]-N-[(3R)-1-methyl-3-piperidyl]pyrrolo[1,2-d][1,2,4]triazin-4-amine] was 1 to 10 nM. The value for `COc1ccc(-c2nnc(N[C@@H]3CCCN(C)C3)n3c(C)ncc23)c(O)c1` [Compound I-411] was 10 to 100 nM; that for `CC(C)(O)CN1CCC[C@@H](Nc2nnc(-c3ccc(C(F)(F)F)cc3C(F)(F)F)c3cccn23)C1` [Compound I-470] was 10 to 100 nM; that for `CCN1CCC[C@@H](Nc2nnc(-c3ccc(C4CC4)cc3O)c3c(F)ccn23)C1` [Compound I-600] was less than 1 nM. To `CN1CCC[C@@H](Nc2nnc(-c3ccc(C(F)(F)F)cc3C(F)F)c3cccn23)C1` [Compound I-426] belongs 10 to 100 nM; to `CN1CCC[C@@H](Nc2nnc(-c3c(O)cccc3F)c3ccncc23)C1` [Compound I-72], 1 to 10 nM. With `CCN1C[C@H](F)C[C@@H](Nc2nnc(-c3c(O)cc(C4CC4)cc3F)c3cccn23)C1` [Compound I-576], the IC50 was less than 1 nM. To `Cc1cc(C(F)(F)F)cc(O)c1-c1nnc(N[C@@H]2CCCN(C)C2)c2cnccc12` [Compound I-103] belongs less than 1 nM; to `CN1C[C@H](F)C[C@@H](Nc2nnc(-c3ccc(C(F)(F)F)cc3OC(F)F)c3cccn23)C1` [Compound I-413, 1-[2-(Difluoromethoxy)-4-(trifluoromethyl)phenyl]-N-[(3R,5R)-5-fluoro-1-methyl-3-piperidyl]pyrrolo[1,2-d][1,2,4]triazin-4-amine], 1 to 10 nM.

On to `CCN1CCC[C@@H](Nc2nnc(-c3ccc(OC(F)(F)F)cc3O)c3cc(C)nn23)C1` [Compound I-584], for which the IC50 was less than 1 nM. With `Cc1noc2c(-c3ccc(C(F)(F)F)cc3O)nnc(N[C@@H]3CCCN(CCO)C3)c12` [Compound I-256, 2-[3-methyl-4-[[(3R)-1-(2-hydroxyethyl)-3-piperidyl]amino]isoxazolo[4,5-d]pyridazin-7-yl]-5-(trifluoromethyl)phenol], the half-inhibitory concentration (IC50) lay in the range of 10 to 100 nM. To `Cc1cc(O)c(-c2nnc(N[C@@H]3CCCN(C)C3)n3nc(C)cc23)c(F)c1` [Compound I-359] belongs less than 1 nM.

Source of the values: US20240262806A1, “INHIBITORS OF NLRP3” (PTC THERAPEUTICS, INC., priority 2021, published 2024).
